Results from US12685312B2, “Sulfonamide apyrase inhibitors” (Texas Crop Science, Inc., priority 2022, dated 2026).

Test system: apyrase
Assay: Screen for apyrase inhibitors (Method 1, in vitro phosphate-release absorbance assay)
Format: biochemical
Conditions: inhibitor conc at 1 mM stock, 1 hr room temperature, absorbance 630 nm; rounded average of two assay results
Method in brief: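 Phosphate-release colorimetric assay (Windsor method) in 60 mM Hepes, 3 mM MgCl2, 3 mM CaCl2, 3 mM ATP, pH 6.5, with compound or DMSO control added. Released phosphate developed with ammonium molybdate and ascorbic acid/TCA, then stopped with citrate/acetic acid.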

Compound	% Inhibition of Apyrase
CC(=O)Nc1ccc(NC(=O)c2ccc(NS(=O)(=O)c3ccc(Br)cc3)cc2)cc1 [I-963, N-(4-acetamidophenyl)-4-((4-bromophenyl)sulfonamido)benzamide]	10%
O=C(c1ccc(Cl)c(S(=O)(=O)N2CCc3ccccc32)c1)N1CCc2cc([N+](=O)[O-])ccc21 [I-495, (4-chloro-3-(indolin-1-ylsulfonyl)phenyl)(5-nitroindolin-1-yl)methanone]	57%
Cc1c(NC(=O)c2ccc(Cl)c(S(=O)(=O)Nc3ccccc3)c2)cccc1[N+](=O)[O-] [I-39, 4-chloro-N-(2-methyl-3-nitrophenyl)-3-(N-phenylsulfamoyl)benzamide]	14%
COc1cc(C(=O)Nc2cccc(S(=O)(=O)N(C)c3ccccc3)c2)ncn1 [I-753, 6-methoxy-N-(3-(N-methyl-N-phenylsulfamoyl)phenyl)pyrimidine-4-carboxamide]	37%
O=C(Nc1cnccn1)c1cccc(NS(=O)(=O)c2c(F)cccc2F)c1 [I-659, 3-((2,6-difluorophenyl)sulfonamido)-N-(pyrazin-2-yl)benzamide]	31%
COc1ccc(NS(=O)(=O)c2ccc(NC(=O)c3cc(Cl)cc(Cl)c3)cc2)cc1 [I-992, 3,5-dichloro-N-(4-(N-(4-methoxyphenyl)sulfamoyl)phenyl)benzamide]	49%
Cc1ccc(NS(=O)(=O)c2cc(C(=O)Nc3cccc([N+](=O)[O-])c3)ccc2C)cc1C [I-5, 3-(N-(3,4-dimethylphenyl)sulfamoyl)-4-methyl-N-(3-nitrophenyl)benzamide]	71%
COc1cc(C(=O)Nc2cccc(NS(=O)(=O)c3ccc(C)c(C)c3)c2)cc2c1OCCO2 [I-339, N-(3-((3,4-dimethylphenyl)sulfonamido)phenyl)-8-methoxy-2,3-dihydrobenzo[b][1,4]dioxine-6-carboxamide]	69%
CSc1cccc(NC(=O)c2ccc(C(=O)Nc3cccc(SC)c3)cc2)c1 [I-861, N1,N4-bis(3-(methylthio)phenyl)terephthalamide]	68%
O=C(Nc1ccccc1)c1ccccc1NS(=O)(=O)c1cccc(C(F)(F)F)c1 [I-377, N-phenyl-2-((3-(trifluoromethyl)phenyl)sulfonamido) benzamide]	20%
Cc1cccc(NC(=O)c2cc(S(=O)(=O)Nc3cccc(C)c3)ccc2Cl)c1 [I-518, 2-chloro-N-(m-tolyl)-5-(N-(m-tolyl)sulfamoyl)benzamide]	56%
O=C(Nc1ccc2[nH]nnc2c1)c1ccc(S(=O)(=O)Nc2ccc(Cl)cc2)cc1 [I-389, N-(1H-benzo[d][1,2,3]triazol-5-yl)-4-(N-(4-chlorophenyl)sulfamoyl)benzamide]	63%
CC1CCc2c(sc(NC(=O)c3cccc(S(=O)(=O)Nc4ccc(Br)cc4)c3)c2C#N)C1 (centres unmarked) [I-9, 3-(N-(4-bromophenyl)sulfamoyl)-N-(3-cyano-6-methyl-4,5,6,7-tetrahydrobenzo[b]thiophen-2-yl)benzamide]	61%

More lines, now with the values ahead:

% Inhibition of Apyrase	Compound
26%	O=C(Nc1ccc2c(c1)OCO2)c1ccc(NS(=O)(=O)c2cccc(F)c2)cc1 [I-953, N-(benzo[d][1,3]dioxol-5-yl)-4-((3-fluorophenyl)sulfonamido)benzamide]
43%	COc1ccccc1NS(=O)(=O)c1ccc(NC(=O)c2cccc(C#N)c2)cc1 [I-997, 3-cyano-N-(4-(N-(2-methoxyphenyl)sulfamoyl)phenyl)benzamide]
10%	O=C(c1ccc(NS(=O)(=O)c2cc(Cl)ccc2Cl)cc1)N1CCc2ccccc21 [I-964, 2,5-dichloro-N-(4-(indoline-1-carbonyl)phenyl)benzenesulfonamide]
55%	CC1Cc2ccccc2N1S(=O)(=O)c1cccc(C(=O)Nc2ccc(S(=O)(=O)N(C)C)cc2)c1 (centres unmarked) [I-526, N-(4-(N,N-dimethylsulfamoyl)phenyl)-3-((2-methylindolin-1-yl)sulfonyl)benzamide]
56%	O=C(c1cccc(S(=O)(=O)Nc2ccc(OCc3ccccc3)cc2)c1)N1CCc2ccccc21 [I-521, N-(4-(benzyloxy)phenyl)-3-(indoline-1-carbonyl)benzenesulfonamide]
57%	COc1ccccc1NS(=O)(=O)c1ccc(NC(=O)c2ccccc2SCC2CCCO2)cc1 (centres unmarked) [I-985, N-(4-(N-(2-methoxyphenyl)sulfamoyl)phenyl)-2-(((tetrahydrofuran-2-yl)methyl)thio)benzamide]
55%	O=C(Nc1cccc(S(=O)(=O)Nc2ccccc2Cl)c1)c1ccc([N+](=O)[O-])s1 [I-730, N-(3-(N-(2-chlorophenyl)sulfamoyl)phenyl)-5-nitrothiophene-2-carboxamide]
59%	Cc1cccc(NC(=O)c2ccc(NS(=O)(=O)c3ccc(Br)cc3)cc2)c1C [I-913, 4-((4-bromophenyl)sulfonamido)-N-(2,3-dimethylphenyl)benzamide]
71%	O=C(Nc1cccc(S(=O)(=O)Nc2ccc(Br)cc2)c1)c1ccc(Cl)nc1 [I-703, N-(3-(N-(4-bromophenyl)sulfamoyl)phenyl)-6-chloronicotinamide]
52%	Cc1cccc(NC(=O)c2ccc(NS(=O)(=O)c3ccc(Br)cc3)cc2)c1 [I-936, 4-((4-bromophenyl)sulfonamido)-N-(m-tolyl)benzamide]
56%	O=C(Nc1cccc(NS(=O)(=O)c2ccc(Cl)cc2)c1)c1ccccc1 [I-344, N-(3-((4-chlorophenyl)sulfonamido)phenyl)benzamide]
67%	Cc1cccc(NC(=O)c2cccc(NS(=O)(=O)c3ccc(Cl)cc3)c2)c1 [I-7, 3-((4-chlorophenyl)sulfonamido)-N-(m-tolyl)benzamide]
16%	Cc1ccccc1NC(=O)c1cc(S(=O)(=O)Nc2ccc(Br)cc2)ccc1Cl [I-36, 5-(N-(4-bromophenyl)sulfamoyl)-2-chloro-N-(o-tolyl)benzamide]
43%	Cc1ccc(NS(=O)(=O)c2ccc(C(=O)Nc3ccc(C)c(C)c3)cc2)cc1 [I-888, N-(3,4-dimethylphenyl)-4-(N-(p-tolyl)sulfamoyl)benzamide]
61%	Cc1nc2cc(NC(=O)c3cccc(S(=O)(=O)Nc4ccc(Br)cc4)c3)ccc2o1 [I-256, 3-(N-(4-bromophenyl)sulfamoyl)-N-(2-methylbenzo[d]oxazol-5-yl)benzamide]
45%	O=C(Nc1cccc(S(=O)(=O)Nc2ccccc2Cl)c1)c1ccc(Cl)nc1 [I-746, 6-chloro-N-(3-(N-(2-chlorophenyl)sulfamoyl)phenyl)nicotinamide]
58%	CC1Cc2ccccc2N1S(=O)(=O)c1cccc(C(=O)Nc2ccc(Oc3ccccc3)cc2)c1 (centres unmarked) [I-483, 3-((2-methylindolin-1-yl)sulfonyl)-N-(4-phenoxyphenyl)benzamide]
21%	O=C(Nc1cccc([N+](=O)[O-])c1)c1cccc(S(=O)(=O)Nc2ccc(F)cc2)c1 [I-31, 3-(N-(4-fluorophenyl)sulfamoyl)-N-(3-nitrophenyl)benzamide]
13%	COc1ccc([N+](=O)[O-])cc1NC(=O)c1cccc(S(=O)(=O)Nc2ccc(Cl)cc2)c1 [I-41, 3-(N-(4-chlorophenyl)sulfamoyl)-N-(2-methoxy-5-nitrophenyl)benzamide]
